Laboratory results reported in patent US6737383B1, “Herbicidal oxadiazolidines” (priority 1999, dated 2004).

Legend:
bedstraw = experiment: Test B pre/postemergence bedstraw; type: in vivo, Galium aparine
Outline: (§1)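 Test chemicals in a non-phytotoxic solvent mixture with surfactant were sprayed preemergence onto planted seeds and postemergence onto plants 2 to 18 cm tall (1- to 4-leaf stage). After twelve to sixteen days in a greenhouse, injury was visually rated against untreated controls from 0 (no effect) to 10 (complete control).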

blackgrass = experiment: Test B pre/postemergence blackgrass; type: in vivo, Alopecurus myosuroides
Outline: as §1

surinam grass = experiment: Test B pre/postemergence surinam grass; type: in vivo, Brachiaria decumbens
Outline: as §1

cocklebur = experiment: Test B pre/postemergence cocklebur; type: in vivo, Xanthium strumarium
Outline: as §1

corn = experiment: Test B pre/postemergence corn; type: in vivo, Zea mays
Outline: as §1

crabgrass = experiment: Test B pre/postemergence crabgrass; type: in vivo, Digitaria sanguinalis
Outline: as §1

giant foxtail = experiment: Test B pre/postemergence giant foxtail; type: in vivo, Setaria faberii
Outline: as §1

morningglory = experiment: Test B pre/postemergence morningglory; type: in vivo, Ipomoea hederacea
Outline: as §1

rape = experiment: Test B pre/postemergence rape; type: in vivo, Brassica napus
Outline: as §1

soybean = experiment: Test B pre/postemergence soybean; type: in vivo, Glycine max
Outline: as §1

velvetleaf = experiment: Test B pre/postemergence velvetleaf; type: in vivo, Abutilon theophrasti
Outline: as §1

wheat = experiment: Test B pre/postemergence wheat; type: in vivo, Triticum aestivum
Outline: as §1

wild oat = experiment: Test B pre/postemergence wild oat; type: in vivo, Avena fatua
Outline: as §1

smallflower flatsedge = experiment: Test B flood test smallflower flatsedge; type: in vivo, Cyperus difformis
Outline: (§2)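 Flood test on plants grown to the 2-leaf stage; treated plants kept in greenhouse twelve to sixteen days, then visually rated against controls on a 0 (no effect) to 10 (complete control) scale.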

duck salad = experiment: Test B flood test duck salad; type: in vivo, Heteranthera limosa
Outline: as §2

bamyardgrass = experiment: Test B flood test barnyardgrass; type: in vivo, Echinochloa crus-galli
Outline: as §2

[1] = Preemergence, Rate 62 g/ha, scale of 0 to 10 where 0 is no effect and 10 is complete control
[2] = Preemergence, Rate 125 g/ha, 0 is no effect, 10 is complete control
[3] = Preemergence, Rate 250 g/ha, scale 0 to 10, 0 is no effect, 10 is complete control
[4] = Preemergence, Rate 500 g/ha, scale 0 to 10 (0 no effect, 10 complete control)
[5] = Rate 62 g/ha, Postemergence, scale of 0 to 10 where 0 is no effect and 10 is complete control
[6] = Rate 125 g/ha, Postemergence, scale 0 to 10
[7] = Rate 500 g/ha, Postemergence, scale 0 to 10
[8] = Rate 62 g/ha, headed Pre-emergence (flood test species), scale 0 to 10 (0 no effect, 10 complete control)
[9] = Rate 125 g/ha, Pre-emergence, flood test species, scale 0 to 10 where 0 is no effect and 10 is complete control
[10] = Rate 250 g/ha, Pre-emergence, flood-test species, scale 0 to 10, 0 is no effect, 10 is complete control
[11] = Rate 500 g/ha, headed Pre-emergence (flood test species), scale 0 to 10 (0 no effect, 10 complete control)

COc1nc(OC)nc(N(C(=O)n2oc(=O)n(-c3c(C)cccc3C)c2=O)C(C)C)n1 [Compound 180]
0: Bedstraw plant response rating (bedstraw; [1]) | Bedstraw plant response rating (0 to 10 scale) (bedstraw; [2]) | Bedstraw plant response rating (bedstraw; [3]) | Bedstraw plant response rating (bedstraw; [4]) | Bedstraw plant response rating (bedstraw; [5]) | Bedstraw plant response rating (bedstraw; [6]) | Plant response rating (0 to 10; 0 is no effect, 10 is complete control), Bedstraw (bedstraw; Rate 250 g/ha, Postemergence) | Bedstraw plant response rating (bedstraw; [7]) | Blackgrass plant response rating (blackgrass; [1]) | Blackgrass plant response rating (0 to 10 scale) (blackgrass; [2]) | Blackgrass plant response rating (blackgrass; [3]) | Blackgrass plant response rating (blackgrass; [4]) | Blackgrass plant response rating (blackgrass; [5]) | Blackgrass plant response rating (blackgrass; [6]) | Plant response rating (0 to 10; 0 is no effect, 10 is complete control), Blackgrass (blackgrass; Rate 250 g/ha, Postemergence) | Blackgrass plant response rating (blackgrass; [7]) | B. signalgrass plant response rating (surinam grass; [1]) | B. signalgrass plant response rating (0 to 10 scale) (surinam grass; [2]) | B. signalgrass plant response rating (surinam grass; [3]) | B. signalgrass plant response rating (surinam grass; [4]) | B. signalgrass plant response rating (surinam grass; [5]) | B. signalgrass plant response rating (surinam grass; Rate 125 g/ha, Postemergence, scale 0 (no effect) to 10 (complete control)) | Plant response rating, B. signalgrass (surinam grass; Rate 250 g/ha, Postemergence, scale 0 to 10, 0 is no effect, 10 is complete control) | B. signalgrass plant response rating (surinam grass; Rate 500 g/ha, Postemergence, scale 0 to 10, 0 no effect, 10 complete control) | Cocklebur plant response rating (cocklebur; [1]) | Cocklebur plant response rating (0 to 10 scale) (cocklebur; [2]) | Cocklebur plant response rating (cocklebur; [3]) | Cocklebur plant response rating (cocklebur; [4]) | Cocklebur plant response rating (cocklebur; [5]) | Cocklebur plant response rating (cocklebur; [6]) | Plant response rating (0 to 10; 0 is no effect, 10 is complete control), Cocklebur (cocklebur; Rate 250 g/ha, Postemergence) | Cocklebur plant response rating (cocklebur; [7]) | Corn plant response rating (corn; [1]) | Corn plant response rating (0 to 10 scale) (corn; [2]) | Corn plant response rating (corn; [3]) | Corn plant response rating (corn; [4]) | Corn plant response rating (corn; [5]) | Corn plant response rating (corn; [6]) | Plant response rating (0 to 10; 0 is no effect, 10 is complete control), Corn (corn; Rate 250 g/ha, Postemergence) | Corn plant response rating (corn; [7]) | Crabgrass plant response rating (crabgrass; [1]) | Crabgrass plant response rating (0 to 10 scale) (crabgrass; [2]) | Crabgrass plant response rating (crabgrass; [3]) | Crabgrass plant response rating (crabgrass; [4]) | Crabgrass plant response rating (crabgrass; [5]) | Crabgrass plant response rating (crabgrass; [6]) | Plant response rating (0 to 10; 0 is no effect, 10 is complete control), Crabgrass (crabgrass; Rate 250 g/ha, Postemergence) | Crabgrass plant response rating (crabgrass; [7]) | Giant foxtail plant response rating (giant foxtail; [1]) | Giant foxtail plant response rating (0 to 10 scale) (giant foxtail; [2]) | Giant foxtail plant response rating (giant foxtail; [3]) | Giant foxtail plant response rating (giant foxtail; [4]) | Giant foxtail plant response rating (giant foxtail; [5]) | Giant foxtail plant response rating (giant foxtail; [6]) | Plant response rating (0 to 10; 0 is no effect, 10 is complete control), Giant foxtail (giant foxtail; Rate 250 g/ha, Postemergence) | Giant foxtail plant response rating (giant foxtail; [7]) | Morningglory plant response rating (morningglory; [1]) | Morningglory plant response rating (0 to 10 scale) (morningglory; [2]) | Morningglory plant response rating (morningglory; [3]) | Morningglory plant response rating (morningglory; [4]) | Morningglory plant response rating (morningglory; [5]) | Morningglory plant response rating (morningglory; [6]) | Plant response rating (0 to 10; 0 is no effect, 10 is complete control), Morningglory (morningglory; Rate 250 g/ha, Postemergence) | Morningglory plant response rating (morningglory; [7]) | Rape plant response rating (rape; [1]) | Rape plant response rating (0 to 10 scale) (rape; [2]) | Rape plant response rating (rape; [3]) | Rape plant response rating (rape; [4]) | Rape plant response rating (rape; [5]) | Rape plant response rating (rape; [6]) | Plant response rating (0 to 10; 0 is no effect, 10 is complete control), Rape (rape; Rate 250 g/ha, Postemergence) | Rape plant response rating (rape; [7]) | Soybean plant response rating (soybean; [1]) | Soybean plant response rating (0 to 10 scale) (soybean; [2]) | Soybean plant response rating (soybean; [3]) | Soybean plant response rating (soybean; [4]) | Soybean plant response rating (soybean; [5]) | Soybean plant response rating (soybean; [6]) | Plant response rating (0 to 10; 0 is no effect, 10 is complete control), Soybean (soybean; Rate 250 g/ha, Postemergence) | Soybean plant response rating (soybean; [7]) | Velvetleaf plant response rating (velvetleaf; [1]) | Velvetleaf plant response rating (velvetleaf; [3]) | Velvetleaf plant response rating (velvetleaf; [4]) | Velvetleaf plant response rating (velvetleaf; [6]) | Plant response rating (0 to 10; 0 is no effect, 10 is complete control), Velvetleaf (velvetleaf; Rate 250 g/ha, Postemergence) | Velvetleaf plant response rating (velvetleaf; [7]) | Wheat plant response rating (wheat; [1]) | Wheat plant response rating (wheat; [3]) | Wheat plant response rating (wheat; [4]) | Wheat plant response rating (wheat; [6]) | Plant response rating (0 to 10; 0 is no effect, 10 is complete control), Wheat (wheat; Rate 250 g/ha, Postemergence) | Wheat plant response rating (wheat; [7]) | Wild oats plant response rating (wild oat; [1]) | Wild oats plant response rating (wild oat; [3]) | Wild oats plant response rating (wild oat; [4]) | Wild oats plant response rating (wild oat; [6]) | Plant response rating (0 to 10; 0 is no effect, 10 is complete control), Wild oats (wild oat; Rate 250 g/ha, Postemergence) | Wild oats plant response rating (wild oat; [7]) | S. Flatsedge plant response rating (smallflower flatsedge; [8]) | S. Flatsedge plant response rating (smallflower flatsedge; [9]) | S. Flatsedge plant response rating (smallflower flatsedge; [10]) | S. Flatsedge plant response rating (smallflower flatsedge; Rate 500 g/ha, Pre-emergence, flood test species, scale 0 to 10 (0 no effect, 10 complete control)) | Ducksalad plant response rating (duck salad; [8]) | Ducksalad plant response rating (duck salad; [9]) | Ducksalad plant response rating (duck salad; [10]) | Plant response rating, Ducksalad (duck salad; [11]) | Barnyardgrass plant response rating (bamyardgrass; [8]) | Barnyardgrass plant response rating (bamyardgrass; [9]) | Barnyardgrass plant response rating (bamyardgrass; [10]) | Plant response rating, Barnyardgrass (bamyardgrass; [11])
